Experiment [1] has as its target GRB7 SH2 domain (Homo sapiens, UniProt Q14451). Nature of the experiment: FP saturation binding assay.
For experiment [2], the target named is T1, PLCG1-C SH2 domain (Homo sapiens, UniProt P19174).
T1 construct: The 6X His-tagged SH2 domain proteins used in the assay, PLCG1-C, SHC4, VAV2; thioredoxin; made in house; host or cells: E. coli BL21(DE3)pLysS
T1 sequence (P19174 668-756 limits assumed): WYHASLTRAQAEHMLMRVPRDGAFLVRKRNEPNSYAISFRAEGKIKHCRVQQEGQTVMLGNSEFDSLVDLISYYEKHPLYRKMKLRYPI
Description: biochemical. Type of experiment: binding. The settings on record: protein PLCG1-C; high-confidence ErbB interactions; mean of replicate hits.

In experiment [3] the target is PIK3R2-NC tandem SH2 domains (Homo sapiens, UniProt O00459). Description: FP saturation binding assay.
Experiment [4] has as its system 93 human SH2 domains and 2 phosphotyrosine binding (PTB) domains. Description: FP saturation binding assay, whole domain panel (protein named per line or not at all). On the procedure: (See Figure 1A) Rhodamine-labeled peptides were dissolved in assay buffer (20 mM HEPES, 100 mM KCl, 0.1% Tween-20, 5 mM DTT, pH 7.8), diluted to a concentration of 20 nM, and plated into black 384-well plates (Corning, Corning, NY) at 5 µL/well using a Perkin Elmer EP3 pipetting workstation (V&P Scientific, Inc., San Diego, CA). SH2, PTB, and thioredoxin control proteins were plated into the first column of 2 mL 96-well plates (Corning) at a concentration of 20 µM and serially diluted 1∶2 into freezing buffer (300 mM NaCl, 50 mM Na2PO4, pH 8, 20% glycerol v/v) eleven times using a Tecan Freedom EVO 100 workstation (Tecan, Männedorf, Switzerland). For the interaction assay, 5 µL of each of the twelve protein concentrations was added to the peptide-containing 384-well plates via the EP3 resulting in a protein dilution range of 0.002–10 µM and a final volume of 10 µL; peptide concentration was fixed at 10 nM. Peptide/protein samples were incubated for 20 minutes at room temperature in the dark and fluorescence polarization (FP) was measured in an Analyst GT multimode reader (Molecular Devices, Sunnyvale, CA) with excitation and emission wavelengths of 530 nm and 555 nm, respectively. Experimental values were output as millipolarization (mP) units and imported into MATLAB (The MathWorks, Inc., Natick, MA) in which equation (1) was used to determine dissociation constants (KDs) for each protein/peptide pairing by least squares nonlinear regression. [drawing 1] (1)
To scale up the number of interaction measurements while minimizing variation introduced by human intervention, we utilized an automated robotic platform (Figure 1A; see experimental procedures and Supplementary Methods) to transfer, incubate, and measure the fluorescence polarization (FP) induced from interactions of a titration series of SH2 domains with synthetic rhodamine-labeled ErbB phosphopeptides. Experimental values were output as millipolarization (mP) units and equation (1) was used to fit apparent midpoint dissociation constants (KDs) for each protein/peptide pair using non-linear regression (see experimental procedures).
For this interaction analysis, we synthesized and queried the interaction of phosphopeptides corresponding to 89 of 92 ErbB family intracellular tyrosines with 93 SH2 domains. Because nine peptide sequences share 100% identity between the receptors in the 4 to 7 amino acids C-terminal to the phosphorylated tyrosine, our peptide set consisted of 81 phosphopeptides corresponding to the 89 unique tyrosine containing sequences (Table S2). This peptide set represents a 50% increase over the three PM studies performed to date. We were therefore able to obtain a more systematic and unbiased view of the relative SH2 domain recruitment potential of each receptor. Although most ErbB receptor auto-phosphorylation sites have been detected frequently by mass spectrometry because of their high relative modification stoichiometry, non-auto-phosphorylation sites have been reported less frequently in the literature (Table S3). We reasoned that many physiologically relevant and uncharacterized ErbB tyrosines of low phosphorylation stoichiometry may exist and that our comprehensive interaction analysis might implicate their importance in mediating physiological interactions. We tested the majority of interactions (7099/8160 (87.0%); Figure S3) three or more times and reported standard error for all interactions that were detected in at least three FP runs (Table S4). […] Analysis of this polarization data may be useful for inferring how SH2 proteins bind to different peptide sequences. Larger proteins and proteins binding closer to the N-terminal rhodamine tag of a given peptide would be expected to induce higher maximal polarization (the calculated maximal polarization value at infinite protein concentration) than proteins binding farther from the tag. In addition to phosphopeptides, we queried a representative set of 27 non-phosphopeptides against the entire domain set. […]

Experiment [5] addresses SH2 and PTB domains. The settings on record: ref Kaushansky et al. Mol Biosys 2008, cited from earlier work. An excerpt: Supplement pone.0044471.s022.xlsx, sheet "Most recent PM interactions" | column: Kd || Supplement pone.0044471.s022.xlsx, sheet "All original PM interactions" | column: Kd

Where two headings read alike, the source gives them in different places. Residues, ends and D or L forms follow the SMILES beside them.

One may read the Kd as the concentration at which binding is half-saturated.

Sequence of GRB7 SH2 domain (Q14451 431-527 limits assumed): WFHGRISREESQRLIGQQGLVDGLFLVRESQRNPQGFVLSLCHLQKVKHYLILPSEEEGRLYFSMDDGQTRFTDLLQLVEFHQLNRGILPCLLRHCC
Sequence of PIK3R2-NC tandem SH2 domains (O00459 330-716 limits assumed): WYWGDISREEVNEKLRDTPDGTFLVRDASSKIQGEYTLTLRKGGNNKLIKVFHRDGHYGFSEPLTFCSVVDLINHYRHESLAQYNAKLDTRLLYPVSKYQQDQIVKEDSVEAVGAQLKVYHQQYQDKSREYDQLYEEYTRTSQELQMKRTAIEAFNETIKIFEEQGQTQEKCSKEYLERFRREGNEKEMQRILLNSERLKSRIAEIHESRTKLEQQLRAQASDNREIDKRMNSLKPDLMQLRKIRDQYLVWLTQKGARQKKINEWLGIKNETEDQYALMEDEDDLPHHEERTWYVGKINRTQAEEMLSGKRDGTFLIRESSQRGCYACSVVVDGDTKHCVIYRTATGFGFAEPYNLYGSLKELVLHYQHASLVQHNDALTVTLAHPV

In turn, `CSCC[C@H](NC(=O)[C@H](Cc1ccc(O)cc1)NC(=O)[C@H](CCC(=O)O)NC(=O)[C@H](Cc1ccc(OP(=O)(O)O)cc1)NC(=O)[C@H](CCC(=O)O)NC(=O)[C@H](CCC(=O)O)NC(=O)[C@H](CC(=O)O)NC(=O)[C@@H](N)CCC(=O)O)C(=O)N[C@@H](CC(N)=O)C(=O)N[C@@H](CCCNC(=N)N)C(=O)N[C@@H](CCCNC(=N)N)C(=O)N[C@@H](CCCNC(=N)N)C(=O)N[C@@H](CC(=O)O)C(=O)O` [ErbB3 pY1197] (HELM PEPTIDE1{E.D.E.E.[O=C([C@H](Cc1ccc(OP(=O)(O)O)cc1)N[*:1])[*:2]].E.Y.M.N.R.R.R.D}$$$$V2.0) returned a Kd in experiment [1] (KD for GRB7, FP saturation assay) of no more than 100 nM.

Regarding `CC(C)C[C@H](NC(=O)[C@H](Cc1ccc(OP(=O)(O)O)cc1)NC(=O)[C@H](CC(C)C)NC(=O)[C@@H]1CCCN1C(=O)[C@H](CCC(=O)O)NC(=O)[C@@H](N)CC(N)=O)C(=O)N[C@@H](CC(N)=O)C(=O)N[C@H](C(=O)N[C@@H](Cc1ccccc1)C(=O)N[C@@H](C)C(=O)N[C@@H](CC(N)=O)C(=O)N[C@H](C(=O)N[C@@H](CC(=O)O)C(=O)O)[C@@H](C)O)[C@@H](C)O` [ErbB4 1208 13-mer] (HELM PEPTIDE1{N.E.P.L.[O=C([C@H](Cc1ccc(OP(=O)(O)O)cc1)N[*:1])[*:2]].L.N.T.F.A.N.T.D}$$$$V2.0), the Kd is 5110 nM in experiment [2]; 8960 nM in experiment [1] (Mean KD, protein GRB7, high-confidence ErbB interactions, mean of replicate hits); 11300 nM in experiment [3].

On to “IGSQpYLLNWCVQd [ErbB1 pY813, N-terminally rhodamine-labeled 13-mer phosphopeptide]”, for which the “interaction with the SH2/PTB domain panel” value in experiment [4] (KD <= 20 µM counted as interaction) was “reproducibly interacted at high affinity with many SH2 domains”. For the same compound, the “SH2 domains found to interact” value in experiment [4] (high-confidence interactions (Table S11, Figure S14)) is listed as “interacted with tensin family SH2 domains”. Besides, the Kd in experiment [5] (protein ABL2) is 200 nM; in experiment [5] (protein GRB10), 350 nM; in experiment [5] (protein ITK), 310 nM; in experiment [5] (protein NCK2), 200 nM; in experiment [5] (protein PIK3R1-C), 1850 nM; in experiment [5] (protein PIK3R1-NC), 1820 nM. Besides, the Kd was 1870 nM in experiment [5] (protein PIK3R3-NC); 1950 nM in experiment [5] (protein RASA1-C); 160 nM in experiment [5] (protein RASA1-NC); 1600 nM in experiment [5] (protein SH2D1B); 50 nM in experiment [5] (protein SH2D3C); 280 nM in experiment [5] (protein SHB). Further, the Kd was 1380 nM in experiment [5] (protein SHE); 1060 nM in experiment [5] (protein SHF); 80 nM in experiment [5] (protein SRC); 240 nM in experiment [5] (protein SYK-NC); 1150 nM in experiment [5] (protein TENC1); 1890 nM in experiment [5] (protein TNS3). Also, the equilibrium dissociation constant (Kd) in experiment [5] (protein VAV1) was 370 nM; in experiment [5] (protein VAV2), 470 nM; in experiment [5] (protein VAV3), 960 nM; in experiment [5] (protein YES1) it was 22 nM.

(Values after PMC3433420 (PLoS ONE, 2012).)
